Usually AC50 stands for the concentration at which the activity in the assay is half-maximal.

Values joined by “and” are separate entries in the source; they are usually repeats but may differ in a detail not shown here. Identical values can stand only once. Active and inactive are the calls of the source. Some results are limits rather than exact numbers.

Among the data in ChEMBL document CHEMBL1201862, “PubChem BioAssay data set” (2004) are EC50, IC50 and AC50 values, retold here.

Some targets named below: Cytochrome P450 3A4 (Homo sapiens, UniProt P08684); Cytochrome P450 2C9 (Homo sapiens, UniProt P11712); Cytochrome P450 2D6 (Homo sapiens, UniProt P10635).
The target in experiment [1] is T1, Heat shock factor protein 1 (Mus musculus, UniProt P38532).
T1 sequence (P38532 whole entry): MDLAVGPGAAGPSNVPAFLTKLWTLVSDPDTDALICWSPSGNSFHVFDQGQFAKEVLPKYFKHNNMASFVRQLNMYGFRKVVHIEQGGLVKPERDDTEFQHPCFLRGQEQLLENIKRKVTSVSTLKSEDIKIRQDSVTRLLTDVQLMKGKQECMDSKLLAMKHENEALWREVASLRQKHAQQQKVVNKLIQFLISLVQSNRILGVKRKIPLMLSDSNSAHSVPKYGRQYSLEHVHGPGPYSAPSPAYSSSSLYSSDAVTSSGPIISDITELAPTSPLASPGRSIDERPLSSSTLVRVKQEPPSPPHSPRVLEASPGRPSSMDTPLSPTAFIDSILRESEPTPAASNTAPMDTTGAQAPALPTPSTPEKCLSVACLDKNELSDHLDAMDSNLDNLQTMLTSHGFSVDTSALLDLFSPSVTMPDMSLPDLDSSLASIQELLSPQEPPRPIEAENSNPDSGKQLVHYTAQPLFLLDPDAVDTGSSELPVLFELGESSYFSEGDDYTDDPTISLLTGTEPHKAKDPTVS
The experiment is described as follows: inhibition of MG132-induced HSE-luciferase signal, confirmation, cell-based, NIH3T3, luminescence, dose retest (AID 2382).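 Note: NIH3T3 fibroblasts with HSF1-driven luciferase reporter stressed by proteasome inhibitor MG132; luminescence from HSF1-driven luciferase expression after 8 hours of MG132 stress.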 It counts as functional.

In experiment [2] the target is T2, Corticotropin-releasing factor receptor 2/Corticotropin-releasing factor-binding protein (Homo sapiens, UniProt P24387+Q13324).
T2 sequence (Q13324 whole entry): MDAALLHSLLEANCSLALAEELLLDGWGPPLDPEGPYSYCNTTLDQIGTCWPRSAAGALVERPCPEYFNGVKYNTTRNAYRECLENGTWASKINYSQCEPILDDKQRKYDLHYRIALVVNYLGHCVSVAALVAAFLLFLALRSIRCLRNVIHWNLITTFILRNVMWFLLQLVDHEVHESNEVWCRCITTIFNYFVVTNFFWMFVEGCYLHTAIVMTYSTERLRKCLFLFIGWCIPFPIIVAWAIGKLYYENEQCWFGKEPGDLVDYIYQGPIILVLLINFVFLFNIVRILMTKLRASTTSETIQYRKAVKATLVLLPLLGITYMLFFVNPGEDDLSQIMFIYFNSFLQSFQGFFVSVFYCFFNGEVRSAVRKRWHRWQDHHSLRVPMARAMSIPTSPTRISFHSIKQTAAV
T2 sequence (P24387 whole entry): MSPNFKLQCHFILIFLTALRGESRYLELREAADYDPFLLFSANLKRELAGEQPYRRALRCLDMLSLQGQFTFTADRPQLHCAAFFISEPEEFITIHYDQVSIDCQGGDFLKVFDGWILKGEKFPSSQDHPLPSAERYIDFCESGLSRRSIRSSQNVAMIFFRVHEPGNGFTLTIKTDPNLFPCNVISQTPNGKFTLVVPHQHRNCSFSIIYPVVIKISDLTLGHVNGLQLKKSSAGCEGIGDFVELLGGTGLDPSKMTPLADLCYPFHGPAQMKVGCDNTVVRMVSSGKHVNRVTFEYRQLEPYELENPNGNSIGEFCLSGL
The experiment is described as follows: Dose Response confirmation of uHTS hits for small molecule antagonists of the CRF-binding protein and CRF-R2 receptor complex. It counts as functional. The conditions noted are these: read-out: IC50_Mean.

In experiment [3] the target is T2, Corticotropin-releasing factor receptor 2/Corticotropin-releasing factor-binding protein. The experiment is described as follows: activators of CRF receptor 2 with binding protein – uHTS hits, confirmation (AID 602473). It counts as functional. The conditions noted are these: read-out: EC50_Mean.
Experiment [4] addresses T1, Heat shock factor protein 1. The experiment is described as follows: HSF1 potentiators in luciferase reporter cells, confirmation, cell-based, NIH3T3, luminescence, dose retest (AID 435004).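 Note: stress induced by proteasome inhibitor MG132 added 30 min after compound; luciferase reporter driven by HSF1 response element in NIH3T3 cells; actives raise luminescence as potentiators of the MG132 stress response.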 It counts as functional. (In a reporter assay the amount or activity of a reporter protein is the signal.)
For a further experiment, the target named is T3, Cytochrome P450 1A2 (Homo sapiens, UniProt P05177).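 Note: PubChem cytochrome P450 panel assay, CYP1A2 panel member.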
T3 sequence (P05177 whole entry): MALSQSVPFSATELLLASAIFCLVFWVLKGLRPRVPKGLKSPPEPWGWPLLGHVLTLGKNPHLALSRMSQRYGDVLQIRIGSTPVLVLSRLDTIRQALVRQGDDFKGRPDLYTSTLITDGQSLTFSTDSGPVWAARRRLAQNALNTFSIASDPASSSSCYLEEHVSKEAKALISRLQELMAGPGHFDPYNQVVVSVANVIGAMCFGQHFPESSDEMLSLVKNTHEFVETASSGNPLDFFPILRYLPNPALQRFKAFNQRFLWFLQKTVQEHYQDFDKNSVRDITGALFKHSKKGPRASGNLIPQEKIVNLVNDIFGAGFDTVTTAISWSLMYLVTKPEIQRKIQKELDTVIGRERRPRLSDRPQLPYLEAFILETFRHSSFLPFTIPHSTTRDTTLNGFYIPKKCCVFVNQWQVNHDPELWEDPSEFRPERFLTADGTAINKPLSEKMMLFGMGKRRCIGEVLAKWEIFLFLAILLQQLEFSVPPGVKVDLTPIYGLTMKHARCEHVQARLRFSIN

Chain of Cytochrome P450 2D6 (P10635 whole entry): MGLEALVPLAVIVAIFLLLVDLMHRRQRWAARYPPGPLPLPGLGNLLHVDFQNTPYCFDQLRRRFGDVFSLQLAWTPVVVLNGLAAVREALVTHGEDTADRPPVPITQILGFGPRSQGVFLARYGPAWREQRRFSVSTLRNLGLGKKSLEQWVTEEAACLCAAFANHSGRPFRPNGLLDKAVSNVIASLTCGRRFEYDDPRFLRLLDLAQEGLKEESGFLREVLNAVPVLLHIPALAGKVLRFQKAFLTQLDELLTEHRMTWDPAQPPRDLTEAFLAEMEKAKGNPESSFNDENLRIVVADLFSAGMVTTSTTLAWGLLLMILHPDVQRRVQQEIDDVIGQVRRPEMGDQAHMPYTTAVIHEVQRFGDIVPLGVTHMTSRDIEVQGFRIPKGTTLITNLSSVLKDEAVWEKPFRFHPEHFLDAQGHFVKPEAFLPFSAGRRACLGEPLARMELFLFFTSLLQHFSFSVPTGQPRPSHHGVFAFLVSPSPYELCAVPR
Chain of Cytochrome P450 3A4 (P08684 whole entry): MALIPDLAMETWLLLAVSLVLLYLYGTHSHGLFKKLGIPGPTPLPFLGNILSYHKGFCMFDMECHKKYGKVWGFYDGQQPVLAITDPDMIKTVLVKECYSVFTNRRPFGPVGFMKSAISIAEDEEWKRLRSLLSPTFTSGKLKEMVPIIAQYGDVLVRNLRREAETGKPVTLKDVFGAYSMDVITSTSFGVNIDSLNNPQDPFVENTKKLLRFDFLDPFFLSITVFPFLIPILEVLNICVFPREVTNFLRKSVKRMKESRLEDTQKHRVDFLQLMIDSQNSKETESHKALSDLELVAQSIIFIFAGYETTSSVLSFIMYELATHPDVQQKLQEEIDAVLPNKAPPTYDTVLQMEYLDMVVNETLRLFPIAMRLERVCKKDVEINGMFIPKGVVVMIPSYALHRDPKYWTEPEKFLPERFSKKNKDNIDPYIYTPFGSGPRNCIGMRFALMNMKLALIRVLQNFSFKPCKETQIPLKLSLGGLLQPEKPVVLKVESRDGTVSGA
Chain of Cytochrome P450 2C9 (P11712 whole entry): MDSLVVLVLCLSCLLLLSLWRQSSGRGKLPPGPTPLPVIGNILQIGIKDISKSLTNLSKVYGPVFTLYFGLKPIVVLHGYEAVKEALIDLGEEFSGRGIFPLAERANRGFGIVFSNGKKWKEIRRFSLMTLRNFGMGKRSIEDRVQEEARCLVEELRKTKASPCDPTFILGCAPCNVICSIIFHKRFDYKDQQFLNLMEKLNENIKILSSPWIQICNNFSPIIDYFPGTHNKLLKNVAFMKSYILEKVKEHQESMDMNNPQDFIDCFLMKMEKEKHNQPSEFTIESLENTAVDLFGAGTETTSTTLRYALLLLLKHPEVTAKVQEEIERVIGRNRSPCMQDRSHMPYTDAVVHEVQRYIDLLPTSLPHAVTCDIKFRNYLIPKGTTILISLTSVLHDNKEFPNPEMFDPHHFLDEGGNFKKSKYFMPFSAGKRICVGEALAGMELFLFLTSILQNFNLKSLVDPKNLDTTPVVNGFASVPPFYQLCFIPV

With `CC(C)(C)c1ccc(/C=C(\C#N)C(=O)Nc2ccccn2)cc1`, in experiment [1], the EC50 is recorded as > 195 µM (not active). Take `COc1ccc(-c2noc(C(=O)NCc3ccc(F)cc3)n2)cc1OC`: the IC50 in experiment [2] is > 47.1 µM (inactive). For the same compound, in experiment [3], the EC50 was > 53 µM (inactive). `Cc1ccc2[nH]c3c(c2c1)CCN(C)C3`: the EC50 in experiment [1] is reported as > 195 µM (not active). `CCOC(=O)c1cn2nc(Oc3cccc(F)c3)ccc2n1`: the IC50 in experiment [2] was > 47.1 µM (inactive). The EC50 in experiment [3] is > 53 µM (inactive). `Cc1ccc(/C=C2\Oc3cc(OC(=O)N4CCOCC4)ccc3C2=O)cc1`: the EC50 in experiment [4] is > 260 µM (inactive). On the same count and under the same terms, then `CCOC(=O)C1CCCN(CC(=O)Nc2c(C(=O)OC)[nH]c3ccccc23)C1` (stereo unspecified), with > 260 µM (inactive).

On to `CC(=O)OCCNC(=O)c1cccnc1`, for which the AC50 was 31.6 µM (inconclusive) on Cytochrome P450 1A2 and 20 µM (inconclusive) at Cytochrome P450 3A4. With `CC1Cc2ccccc2N1CC(=O)NC(=O)NCc1ccccc1` (stereo unspecified), the EC50 in experiment [1] is on record as > 195 µM (not active).

For the compound `COc1ccc(OC2C(=O)N(c3cc(C)ccc3C)C2c2ccc(OC)c(OC)c2)cc1` (stereo unspecified), in experiment [2], the IC50 is > 47.1 µM (inactive). Moreover, the EC50 in experiment [3] was > 53 µM (inactive).

Take `OC(CNCc1ccc(F)cc1)(c1ccc(F)cc1)c1ccc(F)cc1`: the AC50 on Cytochrome P450 2C9 was 12.6 µM (inconclusive). For the same compound, in experiment [4], the EC50 is > 260 µM (inactive).

For the compound `CCOc1ccc(OCCSc2nc(N)cc(=O)[nH]2)cc1`, the IC50 in experiment [2] was > 47.1 µM (inactive). In addition, in experiment [3], the EC50 is > 53 µM (inactive). Regarding `CCC(C)[C@H](NC(=O)NCc1cccc(OC)c1)C(=O)O` (stereo partly specified), the EC50 in experiment [1] is on record as > 195 µM (not active). As to `C#CCCCC(=O)Nc1ccccc1`, the AC50 on Cytochrome P450 1A2 is 20 µM (inconclusive); on Cytochrome P450 3A4 it was 25.1 µM (inconclusive). `CCC(=O)NCc1c(Cl)cccc1-n1cccc1`: the AC50 on Cytochrome P450 2C9 was 15.8 µM (inconclusive); on Cytochrome P450 2D6, 15.8 µM (inconclusive); on Cytochrome P450 3A4 it was 25.1 µM (inconclusive). Turning to `COc1ccc(C)cc1NC(=O)C(=O)NNC(=O)COc1ccc(Cl)cc1`, the EC50 in experiment [1] was 14.8 µM (active). The same measure, in the same setting: then `CCOC(=O)c1c(S(=O)(=O)N2CCCCC2C)c(C)n(C)c1C` (stereo unspecified), with > 195 µM (not active). In the case of `COc1ccc(OC)c(CN2CCN(S(=O)(=O)c3ccc(NC(C)=O)cc3)CC2)c1`, the IC50 in experiment [2] is > 47.1 µM (inactive). Further, the EC50 in experiment [3] was > 53 µM (inactive). As to `COc1ccc2nnc(-c3ccc(C(F)(F)F)cc3)n2n1`, the EC50 in experiment [1] is reported as > 195 µM (not active). Turning to `Cc1cc(O)nc(SCc2nc3ccccc3c(=O)n2-c2ccccc2C)n1`, the EC50 in experiment [4] is > 260 µM (inactive).

For the compound `Cc1ccc(S(=O)(=O)N2CCN(C(=O)COc3ccc(C)nc3[N+](=O)[O-])CC2)c(C)c1`, in experiment [2], the IC50 is > 47.1 µM (inactive). The EC50 in experiment [3] is > 53 µM (inactive). For `CCC(C(=O)NCCN1CCOCC1)n1c2ccccc2c2nc(=O)cc(C)n21` (stereo unspecified), the IC50 in experiment [2] was > 47.1 µM (inactive). The EC50 in experiment [3] was > 53 µM (inactive). On the same counts, the results for `COc1cccc(C(=O)Nc2cc(C(=O)NCc3ccc(C)cc3)ccc2N2CCC3(CC2)CC(c2cccc(Br)c2)=NO3)c1` are < 0.368 µM (active) and > 53 µM (inactive). For the compound `CCCC[C@@H]1C[C@H]1[C@@H](NC(=O)c1ccco1)c1ccc(Cl)cc1`, the EC50 in experiment [1] is > 195 µM (not active). Same read-out and setting: then `O=C(COc1ccc(Cl)cc1)N1CCCC1`, with > 195 µM (not active); and `CCC(=O)N1CCc2cc(S(=O)(=O)NCCC(=O)Nc3ccccc3C)ccc21`, with > 195 µM (not active); and `O=C(CSc1nnnn1CCCO)Nc1ccc2c(c1)OCO2`, with > 195 µM (not active). With `Brc1ccc(-c2noc(CCc3ccccc3)n2)o1`, in experiment [2], the IC50 was > 47.1 µM (inactive). Also, the EC50 in experiment [3] was > 53 µM (inactive). Regarding `CCOC(=O)c1c(CN2CCC(C)CC2)n(C)c2cc(Br)c(OC)cc12`, the EC50 in experiment [4] is > 260 µM (inactive). As to `CCCc1c(O)c2ccccc2n(-c2ccccc2)c1=O`, the concentration at half-maximal activity (AC50) on Cytochrome P450 2C9 is 12.6 µM (inconclusive); at Cytochrome P450 3A4, 22.4 µM (inconclusive).

`COc1ccc(C(=O)/C=C2/C(=O)Nc3ccccc32)cc1OC`: the EC50 in experiment [4] was > 260 µM (inactive). `C=CCNC(=O)c1c(C(F)(F)F)nn(C)c1Cl`: the EC50 in experiment [1] is > 195 µM (not active). For `NC(=NOC(=O)COc1ccc(Br)cc1)c1ccncc1`, in experiment [2], the IC50 was > 47.1 µM (inactive). The EC50 in experiment [3] was > 53 µM (inactive). `CN(C)/C=C/C(=O)c1ccc(S(=O)(=O)c2ccccc2)cc1`: the EC50 in experiment [1] is > 195 µM (not active). The same measure, in the same setting: then `O=C(NCCN1CCCCC1)Nc1ccccc1Cl`, with > 195 µM (not active). For `O=C(CCCc1cccs1)Nc1ccc2c(c1)OCO2`, in experiment [2], the IC50 was > 47.1 µM (inactive). Moreover, the EC50 in experiment [3] is > 53 µM (inactive). On to `CCC(C)N(C(=O)C(F)(F)F)C(C(=O)NC1CCCCC1)c1ccncc1` (stereo unspecified), for which the EC50 in experiment [1] is > 195 µM (not active). On the same count and under the same terms, then `CC(=O)Nc1c(C(=O)Nc2ccc3c(c2)OCO3)oc2ccccc12`, with > 195 µM (not active). Consider `Cc1onc(-c2ccccc2)c1C(=O)OCc1nnc(-c2ccccc2)o1`, for which the EC50 in experiment [4] is > 260 µM (inactive). On to `CCN(CC)CCCN1C(=O)c2oc3ccccc3c(=O)c2C1c1cccc(OC)c1OC` (stereo unspecified), for which the EC50 in experiment [4] was > 260 µM (inactive). Take `Cc1nn(C(=O)c2c(-c3ccccc3)noc2C)c(C)c1N=Nc1cc(C(F)(F)F)cc(C(F)(F)F)c1`: in experiment [2], the IC50 is > 47.1 µM (inactive). For the same compound, the EC50 in experiment [3] was > 53 µM (inactive). For the compound `O=C(Nc1ccccn1)C1CCN(S(=O)(=O)c2ccc3ccccc3c2)CC1`, in experiment [2], the IC50 is > 47.1 µM (inactive). Further, in experiment [3], the EC50 is > 53 µM (inactive).

For `COC(=O)CNC(c1ccccc1)c1cc(Br)ccc1N` (stereo unspecified), in experiment [4], the EC50 is > 260 µM (inactive). For `Cc1c(C(=O)N2CC(C(=O)N3CCCCC3)Oc3ccccc32)oc2ccccc12` (stereo unspecified), the IC50 in experiment [2] is > 47.1 µM (inactive). Also, the EC50 in experiment [3] is > 53 µM (inactive). Regarding `CCOc1ccccc1N1CCN(C(=O)C2CSC3(C)CCC(=O)N23)CC1` (stereo unspecified), in experiment [2], the IC50 is > 47.1 µM (inactive). The EC50 in experiment [3] is > 53 µM (inactive). Turning to `O=C(N/N=C/CCc1ccccc1)c1ccccc1`, in experiment [4], the EC50 is > 260 µM (inactive). Still for that read-out and setting: then `Cc1[nH]n(-c2ccccc2)c(=O)c1/C=N/CCc1ccccc1`, with 85.4 µM (active). Take `CCCn1c(=O)c2[nH]c(C3CCCC3)nc2n(CCCOC(=O)c2ccc(S(=O)(=O)F)cc2)c1=O`: the AC50 on Cytochrome P450 2C9 and on Cytochrome P450 3A4 was 3.16 µM (inconclusive) throughout. For the compound `NCCNS(=O)(=O)c1cccc2cnccc12`, the AC50 on Cytochrome P450 2D6 is 7.94 µM (inconclusive) and 25.1 µM (inconclusive); at Cytochrome P450 3A4 it was 20 µM (inconclusive) and 39.8 µM (inconclusive).
